The results in this text go back to patent publication US20170348375A1, “DISLODGEMENT AND RELEASE OF HSC FROM THE BONE MARROW STEM CELL NICHE USING ALPHA9 INTEGRIN ANTAGONISTS” (COMMONWEALTH SCIENTIFIC AND INDUSTRIAL RESEARCH ORGANISATION, priority 2014, published 2017).

Usually koff stands for the rate constant with which the complex falls apart. Read a high koff as a short-lived complex. Broadly, the kon is a measure of how fast the partners come together. A lower kon goes with slower complex formation. Broadly, the Kd is the equilibrium constant for the complex coming apart.

Read-outs that look alike come from different tables or passages of the source.

For series [1], the system named is bone marrow progenitor cells (LSK) and HSC (LSKSLAM). The series can be described thus: In vivo bone marrow binding assay. Set-up: species or system mouse. The protocol: After 5 min, bone marrow cells were isolated as previously described in D. N. Haylock et al Stem Cells, 2007, 25, 1062-1069 and J. Grassinger, et al Cytokine, 2012, 58, 218-225. Briefly, one femur, tibia and iliac crest were excised and cleaned of muscle. After removing the epi- and metaphyseal regions, bones were flushed with PBS-2% FBS to obtain whole bone marrow, which were washed with PBS-2% FBS and then immunolabelled for flow cytometry. […] For staining progenitor cells (LSK; Lineage−Sca-1^+c-kit^+) and HSC (LSKSLAM; LSKCD150+CD48−), cells were labelled with a lineage cocktail (CD3, Ter-119, Gr-1, Mac-1, B220; all antibodies APC-Cy7 conjugated), anti-Sca-1-PB, anti-c-kit-AF647, anti-CD48-FITC and anti-CD150-BV650.
(§1) Cells were washed with cold PBS (2% F BS) and then immunolabelled as described in “Antibody Cocktails” prior to flow cytometric analysis.
Sorted cells were imaged using an Olympus BX51 microscope.

The target of series [2] is T1, α9β1 integrin (Homo sapiens, UniProt P05556+Q13797).
T1 construct: expressed in transfected cells; host or cells: human glioblastoma LN18 (ATCC CRL-2610), retrovirally transduced; α4 silenced with pSM2c-shITGA4
As to the kind of experiment: On-rate and off-rate kinetics of R-BC154 binding to α9β1 LN18 cells. Particulars: for kobs: 50 nM, 37° C., fast phase; for kon: (kobs − koff)/50 nM. The method, then:
Mean channel fluorescence was plotted against time and the data was fitted to either a one-phase or two-phase exponential decay function using GraphPad Prism 6. The off-rate, koff was extrapolated from the curves.
Eppendorf vials containing α4β1 or α9β1 LN18 cells (0.5×10^6 cells) in 50 μl TBS-2% FBS containing either 1 mM CaCl2—MgCl2 or 1 mM MnCl2 were pre-activated in a heating block for 20 min at 37° C. […] The cells were washed once TBS-2% FBS (with relevant cations), pelleted by centrifugation and resuspended (200 μl) in the relevant binding buffer for flow cytometric analysis. Mean channel fluorescence was plotted against time and the data was fitted to either a one-phase or two phase association function using GraphPad Prism 6. The observed on-rate, kobs was extrapolated from the curves and kon was calculated using […]

For series [3], the system named is human cord blood mononuclear cells (MNC). The series can be described thus: In vitro R-BC154 binding to human cord blood mononuclear cells. The series is classed as cell-based. The method, then:
Mononuclear cells (MNC) were isolated from cord blood as previously described in Nilsson, S. K. et al Blood 106, 1232-1239, (2005) and Grassinger, J. et al. Blood 114, 49-59, (2009). MNCs were incubated with a lineage antibody cocktail containing mouse anti-human CD3, CD11b, CD14, CD16, CD20, CD24, and CD235a (BD) and then treated with two rounds of Dynal sheep anti-mouse IgG beads (Invitrogen, Carlsbad, Calif.) at a ratio of 2 beads per cell for 5 min and then 10 min at 4° C. with constant rotation. Enriched MNC were stained with CD34-fluorescein isothiocyanate (FITC) CD34^+ cells purified by FACS.
as §1

Series [4] deals with control LN18 cells (LN18 SiA4). The series can be described thus: Saturation binding to control LN18 cells (no integrins). Particulars: 1 mM Ca2+/Mg2+. Also on record: species or system human. The method, then:
(§2) Stable LN18 cells ((ATCC number: CRL-2610) over-expressing integrin α4β1 (LN18 α4β1) or α9β1 (LN18 α9β1)) were generated by retroviral transduction using the pMSCV-hITGA4-IRES-hITGB1 and pMSCV-hITGA9-IRES-hITGB1 vectors as previously described in J Grassinger, et al Blood, 2009, 114, 49-59 and were maintained in DMEM supplemented with 2 mM […] in 10% FBS. Transduced cells were selected by two rounds of FACS using 2.5 μg ml^−1 PE-Cy5-conjugated mouse-anti-human α4 antibody (BD Bioscience) or 20 μg ml^−1 of mouse-anti-human α9β1 antibody (Millipore) in PBS-2% FBS, followed by 0.5 μg ml^−1 of PE-conjugated goat-anti-mouse IgG (BD Bio-science). Silencing of α4 expression in LN18 and LN18 α9β1 cells was performed as described above using pSM2c-shITGA4 (Open Biosystems). α4-silenced LN18 cells (control cell line; LN18 SiA4) and LN18 α9β1 (LN18 α9β1SiA4) were negatively selected for α4 expression using FACS.
(§3) The cells were incubated at 37° C. for 60 min, washed once with TBS-2% FBS, dry pelleted and resuspended in the relevant binding buffer for flow cytometric analysis. Mean channel fluorescence was plotted against concentration and fitted to a one-site saturation ligand binding curve using GraphPad Prism 6. The dissociation constant, Kd was determined from the curves.

For series [5], the target named is T2, human integrin α9β1 (Homo sapiens, UniProt P05556+Q13797).
T2 construct: expressed in transfected cells; host or cells: human glioblastoma LN18 (ATCC CRL-2610), retrovirally transduced; α4 silenced with pSM2c-shITGA4
The series can be described thus: Saturation binding to α9β1 over-expressing LN18 cells (flow cytometry). Particulars: for Kd: α9β1 LN18 cells, read-out: Kd (dissociation constant), α9β1. The protocol:
as §2, §3
In general terms: A flow cytometer gives signals particle by particle.

T2 sequence (Q13797 30-1035): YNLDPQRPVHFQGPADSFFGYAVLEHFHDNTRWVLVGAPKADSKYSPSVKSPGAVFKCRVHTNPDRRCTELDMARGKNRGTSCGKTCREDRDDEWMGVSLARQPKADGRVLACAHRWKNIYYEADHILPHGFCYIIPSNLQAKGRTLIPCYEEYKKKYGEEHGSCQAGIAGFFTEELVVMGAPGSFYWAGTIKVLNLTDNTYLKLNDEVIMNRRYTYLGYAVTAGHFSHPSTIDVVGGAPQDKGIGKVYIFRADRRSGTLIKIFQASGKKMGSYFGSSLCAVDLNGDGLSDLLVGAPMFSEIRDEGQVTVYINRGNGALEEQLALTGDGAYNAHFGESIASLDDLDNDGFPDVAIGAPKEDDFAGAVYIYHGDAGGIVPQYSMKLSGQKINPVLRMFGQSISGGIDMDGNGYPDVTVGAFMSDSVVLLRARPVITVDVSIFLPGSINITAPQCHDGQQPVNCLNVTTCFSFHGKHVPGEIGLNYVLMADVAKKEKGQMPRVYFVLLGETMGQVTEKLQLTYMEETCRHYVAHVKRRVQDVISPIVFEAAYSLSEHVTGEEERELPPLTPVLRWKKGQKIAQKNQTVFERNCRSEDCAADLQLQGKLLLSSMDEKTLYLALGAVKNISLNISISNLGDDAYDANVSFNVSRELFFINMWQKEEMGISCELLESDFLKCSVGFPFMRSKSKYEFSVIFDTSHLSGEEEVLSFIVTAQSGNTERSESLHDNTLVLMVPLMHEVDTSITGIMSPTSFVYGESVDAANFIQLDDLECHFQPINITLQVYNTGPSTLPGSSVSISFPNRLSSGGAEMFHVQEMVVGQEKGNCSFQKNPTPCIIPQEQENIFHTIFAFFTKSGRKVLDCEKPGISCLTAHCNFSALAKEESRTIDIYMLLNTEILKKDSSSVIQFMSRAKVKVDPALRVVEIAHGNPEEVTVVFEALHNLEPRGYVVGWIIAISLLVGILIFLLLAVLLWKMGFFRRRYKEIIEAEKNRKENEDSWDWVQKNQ
T2 sequence (P05556 21-798): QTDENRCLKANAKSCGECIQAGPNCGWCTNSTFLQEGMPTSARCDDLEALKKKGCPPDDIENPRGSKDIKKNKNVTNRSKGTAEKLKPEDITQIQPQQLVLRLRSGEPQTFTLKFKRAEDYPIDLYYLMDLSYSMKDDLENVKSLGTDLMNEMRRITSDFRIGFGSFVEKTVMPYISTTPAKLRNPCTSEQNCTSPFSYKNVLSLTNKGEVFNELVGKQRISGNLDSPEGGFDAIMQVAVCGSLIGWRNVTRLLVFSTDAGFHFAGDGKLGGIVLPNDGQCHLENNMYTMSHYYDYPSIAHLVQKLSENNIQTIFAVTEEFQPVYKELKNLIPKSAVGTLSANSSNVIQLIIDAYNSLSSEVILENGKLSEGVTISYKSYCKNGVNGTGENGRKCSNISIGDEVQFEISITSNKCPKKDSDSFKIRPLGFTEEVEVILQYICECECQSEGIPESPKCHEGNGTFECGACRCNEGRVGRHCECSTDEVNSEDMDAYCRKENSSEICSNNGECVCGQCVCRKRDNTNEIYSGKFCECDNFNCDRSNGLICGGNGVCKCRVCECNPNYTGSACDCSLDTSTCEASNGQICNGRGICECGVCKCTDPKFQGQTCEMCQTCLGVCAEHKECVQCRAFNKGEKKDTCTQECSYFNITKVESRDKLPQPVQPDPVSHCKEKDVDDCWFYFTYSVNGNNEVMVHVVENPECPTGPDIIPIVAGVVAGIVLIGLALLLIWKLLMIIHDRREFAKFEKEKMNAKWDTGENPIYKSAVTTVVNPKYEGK
T1 sequence (Q13797 30-1035): as the sequence (Q13797 30-1035) above
T1 sequence (P05556 21-798): as the sequence (P05556 21-798) above

For the compound `CCN(CC)c1ccc2c(-c3ccc(S(=O)(=O)NCc4cn(C5CC(C(=O)NC(Cc6ccc(OC(=O)N7CCCC7)cc6)C(=O)O)N(S(=O)(=O)c6ccccc6)C5)nn4)cc3S(=O)(=O)[O-])c3ccc(=[N+](CC)CC)cc-3oc2c1` (stereo not drawn) [R-BC154], the “in vivo labelling of BM progenitor cells (LSK) and HSC (LSKSLAM)” value in series [1] (10 mg kg−1 intravenously, C57 mice, vs un-injected mice) is reported as “Increased cell-associated fluorescence”. Besides, in series [1] (30 mins post-s.c.), the “binding to BM LSK after s.c. treatment” value is “persistent binding”. Besides, the “in vivo binding on α4−/−/α9−/− LSK cells” value in series [1] (conditional KO mice injected with R-BC154) is reported as “No binding”. Moreover, the “proportion of R-BC154hi LSK and LSKSLAM cells, endosteal vs central BM” value in series [1] (i.v. administration, C57Bl/6 mice) is recorded as “greater proportion of R-BC154^hi cells”. Moreover, the “clearance following i.v. administration” value in series [1] (i.v., mice) is less than 5 min. Besides, the “binding on LSK in the PB compared to BM” value in series [1] (s.c. administration) was “Minimal binding”. Moreover, the “off-rates for α9β1 compared to α4β1” value in series [2] (Example 2, FIG. 5c) is recorded as “significantly reduced off-rates”. The “R-BC154 still bound after 60 min” value in series [2] (α9β1, Mn2+, dissociation experiment) is given as “greater than 60%”. In series [2] (α9β1 cells, 1 mM Ca2+/Mg2+), this compound registered a koff of 0.0009 s⁻¹, a kobs of 3.117 min⁻¹ and a kon of 1.02e+06 M⁻¹ s⁻¹. In series [2] (α9β1 cells, 1 mM Mn2+), this compound returned a kobs of 2.035 min⁻¹ and an on-rate (kon) of roughly 670000 M⁻¹ s⁻¹. Besides, in series [3] (1 mM Ca2+/Mg2+ vs no cations), the “binding to human cord blood MNC” value was “Divalent cation and dose dependent binding”. Also, the “binding to CD34+CD38− cells versus other MNC populations” value in series [3] (activating conditions) is reported as “greater binding was observed on stem cell enriched CD34^+CD38^− cells compared to lineage-committed CD34^− cells”. For the same compound, the “binding to control cell line lacking integrin expression” value in series [4] is recorded as “Virtually no binding”. Moreover, the Kd in series [5] (1 mM Ca2+/Mg2+) is 12.7 nM. The Kd in series [5] (1 mM Mn2+) worked out at 14.4 nM. Moreover, in series [5] (Ca2+/Mg2+ conditions), the “greater affinity for α9β1 than α4β1” value is on record as 3 fold and the “reduction in binding affinity to α9β1 compared to compound 22” value is reported as 1.5 fold. Further, in series [5] (TBS buffer only, LN18 α9β1 cells (FIG. 4)), the “integrin binding in the absence of cations” value was “no integrin binding was observed”.
